Molecules are shown by their SMILES. Converted amounts (≈) assume the structure as drawn.

The source of these data is ChEMBL document CHEMBL4823287, “Design and synthesis of novel 5-alkynyl pyrimidine nucleosides derivatives: Influence of C-6-substituent on antituberculosis activity” (2021).

Assay [1] relates to Mycobacterium tuberculosis. Nature of the assay: Antimycobacterial activity against Mycobacterium bovis BCG assessed as inhibition of bacterial growth at 1 ug/ml measured by microplate alamar blue assay. Type of assay: functional. As to conditions: variant bovis BCG. For orientation: Resazurin is reduced to fluorescent resorufin, in cell work by metabolically active cells.
The subject of assay [2] is Mycobacterium tuberculosis. Nature of the assay: Antimycobacterial activity against Mycobacterium bovis BCG assessed as inhibition of bacterial growth at measured by microplate alamar blue assay. The assay is classed as functional. As to conditions: variant bovis BCG.
Assay [3] concerns Mycobacterium tuberculosis. As to the kind of experiment: Antimycobacterial activity against Mycobacterium bovis BCG assessed as inhibition of bacterial growth at 1 to 5 ug/ml measured by microplate alamar blue assay. As to conditions: dose 1-5 µg/ml; at 1 to 5 µg/mL. Type of assay: functional, variant bovis BCG.
Assay [4] deals with Mycobacterium tuberculosis. Nature of the assay: Antimycobacterial activity against Mycobacterium bovis BCG assessed as inhibition of bacterial growth at 50 ug/ml measured by microplate alamar blue assay. As to conditions: variant bovis BCG. Type of assay: functional.
The test system of assay [5] is Mycobacterium tuberculosis. As to the kind of experiment: Antimycobacterial activity against Mycobacterium bovis BCG assessed as inhibition of bacterial growth at 10 ug/ml measured by microplate alamar blue assay. Type of assay: functional. As to conditions: variant bovis BCG.
The test system of assay [6] is Mycobacterium tuberculosis. Nature of the assay: Antimycobacterial activity against Mycobacterium bovis BCG assessed as inhibition of bacterial growth at 100 ug/ml measured by microplate alamar blue assay. Type of assay: functional. Conditions: variant bovis BCG.
Assay [7] concerns Mycobacterium tuberculosis. As to the kind of experiment: Antimycobacterial activity against Mycobacterium bovis BCG assessed as inhibition of bacterial growth at 25 ug/ml measured by microplate alamar blue assay. The assay is classed as functional. Conditions: variant bovis BCG.
Assay [8] deals with Mycobacterium tuberculosis. Nature of the assay: Antimycobacterial activity against Mycobacterium bovis BCG assessed as inhibition of bacterial growth at 5 ug/ml measured by microplate alamar blue assay. Type of assay: functional. As to conditions: variant bovis BCG.

In the case of `CO[C@H]1/C=C/O[C@@]2(C)Oc3c(C)c(O)c4c(O)c(c(/C=N/N5CCN(C)CC5)c(O)c4c3C2=O)NC(=O)/C(C)=C\C=C\[C@H](C)[C@H](O)[C@@H](C)[C@@H](O)[C@@H](C)[C@H](OC(C)=O)[C@@H]1C` [RIFAMPIN], in assay [1], the inhibition – broadly, how much of the control response was suppressed – at 1 µg/mL worked out at 100%. In assay [2], the MIC50 (usually an inhibitory concentration at the 50% level, which refers to growth in some studies and to a panel of isolates in others) amounted to 0.8 µg/mL (≈ 0.972 µM).
Take `Cc1c(C#Cc2ccccc2)c(=O)[nH]c(=O)n1[C@@H]1O[C@H](CO)[C@@H](O)[C@H]1O`: the “inhibition (INH)” value in assay [3] was 50%. The inhibition at 50 µg/mL in assay [4] was 75%. Besides, the inhibition at 10 µg/mL in assay [5] worked out at 75%. The MIC50 in assay [2] is 2.2 µg/mL (≈ 6.14 µM). Besides, the inhibition at 100 µg/mL in assay [6] turned out to be 90%.
For the compound `CCCC#Cc1c(C)n([C@@H]2O[C@H](CO)[C@@H](O)[C@H]2O)c(=O)[nH]c1=O`, the inhibition at 50 µg/mL in assay [4] came to 60%. The inhibition at 10 µg/mL in assay [5] is 0%. In assay [2], the MIC50 was under 50 µg/mL. For the same compound, the inhibition at 100 µg/mL in assay [6] came to 90%.
Consider `NNC(=O)c1ccncc1` [ISONIAZID], for which the inhibition at 1 µg/mL in assay [1] came to 100%. Besides, the MIC50 in assay [2] is 0.9 µg/mL (≈ 6.56 µM).
For `Cc1c(C#CCC(C)C)c(=O)[nH]c(=O)n1[C@@H]1O[C@H](CO)[C@@H](O)[C@H]1O`, the “inhibition (INH)” value in assay [3] amounted to 10%. In addition, the inhibition at 50 µg/mL in assay [4] is 100%. Besides, the MIC50 in assay [2] is 18.9 µg/mL (≈ 55.9 µM). The inhibition at 25 µg/mL in assay [7] was determined as 60%.
Take `Cc1c(C#C[Si](C)(C)C)c(=O)[nH]c(=O)n1[C@@H]1O[C@H](CO)[C@@H](O)[C@H]1O`: the inhibition at 100 µg/mL in assay [6] turned out to be 0%.
Turning to `CC#Cc1c(C)n([C@@H]2O[C@H](CO)[C@@H](O)[C@H]2O)c(=O)[nH]c1=O`, the inhibition at 50 µg/mL in assay [4] was determined as 50%. Also, in assay [5], the inhibition at 10 µg/mL stood at 0%. Moreover, the MIC50 in assay [2] was 50 µg/mL (≈ 169 µM). The inhibition at 100 µg/mL in assay [6] is 90%.
`Cc1c(C#CC(O)c2ccccc2)c(=O)[nH]c(=O)n1[C@@H]1O[C@H](CO)[C@@H](O)[C@H]1O` (stereo partly specified): the inhibition at 1 µg/mL in assay [1] came out at 100%. The MIC50 in assay [2] was 0.7 µg/mL (≈ 1.8 µM).
For the compound `Cc1c(C#CC2CCCCC2)c(=O)[nH]c(=O)n1[C@@H]1O[C@H](CO)[C@@H](O)[C@H]1O`, in assay [3], the “inhibition (INH)” value was 10%. Besides, the inhibition at 50 µg/mL in assay [4] was found to be 100%. Besides, the MIC50 in assay [2] came out at 14.7 µg/mL (≈ 40.3 µM). Also, the inhibition at 25 µg/mL in assay [7] came out at 70%.
For `CCCCCCC#Cc1c(C)n([C@@H]2O[C@H](CO)[C@@H](O)[C@H]2O)c(=O)[nH]c1=O`, the inhibition at 50 µg/mL in assay [4] turned out to be 60%. In addition, the MIC50 in assay [2] was under 50 µg/mL. Also, in assay [6], the inhibition at 100 µg/mL worked out at 90%.
In the case of `N[C@@H]1CONC1=O` [CYCLOSERINE], the inhibition at 10 µg/mL in assay [5] worked out at 71%. For the same compound, the MIC50 in assay [2] worked out at 5.1 µg/mL (≈ 50 µM). In addition, the inhibition at 5 µg/mL in assay [8] came to 50%.
For the compound `Cc1c(C#CC2CC2)c(=O)[nH]c(=O)n1[C@@H]1O[C@H](CO)[C@@H](O)[C@H]1O`, the “inhibition (INH)” value in assay [3] came to 50%. Moreover, the inhibition at 10 µg/mL in assay [5] is 80%. Further, the MIC50 in assay [2] stood at 2.1 µg/mL (≈ 6.52 µM). Moreover, the inhibition at 100 µg/mL in assay [6] came to 90%.
`CCC#Cc1c(C)n([C@@H]2O[C@H](CO)[C@@H](O)[C@H]2O)c(=O)[nH]c1=O`: in assay [4], the inhibition at 50 µg/mL worked out at 50%. In addition, in assay [5], the inhibition at 10 µg/mL was found to be 0%. Further, in assay [2], the MIC50 was 50 µg/mL (≈ 161 µM). Besides, the inhibition at 100 µg/mL in assay [6] was determined as 90%.
Turning to `CCCCC#Cc1c(C)n([C@@H]2O[C@H](CO)[C@@H](O)[C@H]2O)c(=O)[nH]c1=O`, in assay [3], the “inhibition (INH)” value was 10%. In addition, the inhibition at 50 µg/mL in assay [4] worked out at 100%. Further, the MIC50 in assay [2] was 18.6 µg/mL (≈ 55 µM). Further, the inhibition at 25 µg/mL in assay [7] was determined as 60%.
